In patent publication US20100210633A1, “CARBOXAMIDE COMPOUNDS AND THEIR USE” (EPIX Delaware, Inc., priority 2006, published 2010) one finds IC50 data, which are given here for 21 molecules.

CCR2, sequence (P41597 whole entry): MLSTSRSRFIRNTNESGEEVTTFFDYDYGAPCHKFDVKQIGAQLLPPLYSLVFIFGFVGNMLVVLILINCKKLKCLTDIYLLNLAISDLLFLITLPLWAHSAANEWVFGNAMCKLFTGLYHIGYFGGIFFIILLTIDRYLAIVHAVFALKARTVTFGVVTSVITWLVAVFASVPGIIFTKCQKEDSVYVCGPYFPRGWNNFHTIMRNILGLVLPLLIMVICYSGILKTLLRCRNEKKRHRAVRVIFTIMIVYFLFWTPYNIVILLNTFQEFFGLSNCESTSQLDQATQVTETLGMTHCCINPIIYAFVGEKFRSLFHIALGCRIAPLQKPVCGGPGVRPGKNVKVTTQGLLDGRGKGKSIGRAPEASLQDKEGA

In this assay the target is CCR2 (Homo sapiens, UniProt P41597). As to the kind of experiment: calcium flux assay. Format: cell-based. The settings on record: read-out: IC50 Ca++ flux. The text has this:
The capacity of the compounds of the invention to antagonize CCR2 function can be determined using a suitable screen (e.g., high throughput assay). For example, an agent can be tested in an extracellular acidification assay, calcium flux assay, ligand binding assay or chemotaxis assay (see, for example, Hesselgesser et al., J Biol. Chem. 273(25):15687-15692 (1998), WO 00/05265 and WO 98/02151).
In general terms: Calcium assays in cells follow changes in intracellular calcium, usually with a dye or a luminescent sensor.
For orientation: IC50 means the midpoint of a concentration-inhibition curve. `CCS(=O)(=O)NC(=O)c1cc(CN2CCC(CC3CC3)(C(=O)NCc3cc(C(F)(F)F)cc(C(F)(F)F)c3)CC2)ccc1F` [Example 64, N-(3,5-Bis(trifluoromethyl)benzyl)-4-(cyclopropylmethyl)-1-(3-(ethylsulfonylcarbamoyl)-4-fluorobenzyl)piperidine-4-carboxamide]: the IC50 is 200 to 1000 nM.

As to `CC(C)CC1(C(=O)N[C@@H](C)c2cc(C(F)(F)F)cc(C(F)(F)F)c2)CCN(Cc2ccc3c(c2)OCO3)CC1` [Example 45, (S)-1-(benzo[d][1,3]dioxol-5-ylmethyl)-N-(1-(3,5-bis(trifluoromethyl)phenyl)ethyl)-4-isobutylpiperidine-4-carboxamide], the IC50 was above 1000 nM.

For `CC(C)CC1(C(=O)NCc2cc(C(F)(F)F)cc(C(F)(F)F)c2)CCN(CC(=O)N2CCS(=O)(=O)CC2)CC1` [Example 53, N-(3,5-Bis(trifluoromethyl)benzyl)-4-isobutyl-1-(2-oxo-2-sulphonylmorpholinoethyl)piperidine-4-carboxamide], the IC50 is above 1000 nM.

For the molecule `O=C(NCc1cc(C(F)(F)F)cc(C(F)(F)F)c1)C1(CC2CC2)CCN(CC2CCOCC2)C1` (stereo not drawn) [Example 81, N-(3,5-Bis(trifluoromethyl)benzyl)-3-(cyclopropylmethyl)-1-((tetrahydro-2H-pyran-4-yl)methyl)pyrrolidine-3-carboxamide], the IC50 was below 200 nM.

For the molecule `O=C(NCc1cc(C(F)(F)F)cc(C(F)(F)F)c1)C1(CC2CCOCC2)CCN(Cc2ccc3c(c2)OCO3)CC1` [Example 27, 1-(Benzo[d][1,3]dioxol-5-ylmethyl)-N-(3,5-bis(trifluoromethyl)benzyl)-4-((tetrahydro-2H-pyran-4-yl)methyl)piperidine-4-carboxamide], the IC50 is above 1000 nM.

For the molecule `COc1ccc(CN2CCC(CC(C)C)(C(=O)NCc3cc(C(F)(F)F)cc(C(F)(F)F)c3)CC2)cc1O` [Example 30, N-(3,5-Bis(trifluoromethyl)benzyl)-1-(3-hydroxy-4-methoxybenzyl)-4-isobutylpiperidine-4-carboxamide], the IC50 is below 200 nM.

`O=C(NCc1cc(C(F)(F)F)cc(C(F)(F)F)c1)C1(Cc2ccncc2)CCN(CC2CCOCC2)CC1` [Example 13, N-(3,5-Bis(trifluoromethyl)benzyl)-4-(pyridin-4-ylmethyl)-1-((tetrahydro-2H-pyran-4-yl)methyl)piperidine-4-carboxamide]: the IC50 was above 1000 nM.

Turning to `CC(C)CC1(C(=O)N[C@H](C)c2cc(C(F)(F)F)cc(C(F)(F)F)c2)CCN(Cc2ccc3c(c2)OCO3)CC1` [Example 44, (R)-1-(Benzo[d][1,3]dioxol-5-ylmethyl)-N-(1-(3,5-bis(trifluoromethyl)phenyl)ethyl)-4-isobutylpiperidine-4-carboxamide], the IC50 was above 1000 nM.

Take `O=C(NCCN1CCCC1)c1cc(CN2CCC(CC3CC3)(C(=O)NCc3cc(C(F)(F)F)cc(C(F)(F)F)c3)CC2)ccc1F` [Example 59, N-(3,5-Bis(trifluoromethyl)benzyl)-4-(cyclopropylmethyl)-1-(4-fluoro-3-(2-(pyrrolidin-1-yl)ethylcarbamoyl)benzyl)piperidine-4-carboxamide]: the IC50 is above 1000 nM.

`COCC1(C(=O)NCc2cc(C(F)(F)F)cc(C(F)(F)F)c2)CCN(CC2CCOCC2)CC1` [Example 11, N-(3,5-Bis(trifluoromethyl)benzyl)-1-((tetrahydro-2H-pyran-4-yl)methyl)-4-(methoxymethyl)piperidine-4-carboxamide]: the IC50 is above 1000 nM.

As for `CC(C)CC1(C(=O)NCc2cc(C(F)(F)F)cc(C(F)(F)F)c2)CCN(C2CCC(O)(c3ccc4c(c3)OCO4)CC2)CC1` (stereo not drawn) [Example 26, 1-(4-(Benzo[d][1,3]dioxol-5-yl)-4-hydroxycyclohexyl)-N-(3,5-bis(trifluoromethyl)benzyl)-4-isobutylpiperidine-4-carboxamide], the IC50 was in the range of 200 to 1000 nM.

With `CC(C)CC1(C(=O)NCc2cc(C(F)(F)F)cc(C(F)(F)F)c2)CCN(CC2CCOCC2)CC1` [Example 12, N-(3,5-Bis(trifluoromethyl)benzyl)-4-isobutyl-1-((tetrahydro-2H-pyran-4-yl)methyl)piperidine-4-carboxamide], the IC50 is above 1000 nM.

As to `N#Cc1ccc(Oc2ccc(CN3CCC(CC4CC4)(C(=O)NCc4cc(C(F)(F)F)cc(C(F)(F)F)c4)CC3)cn2)cc1` [Example 67, N-(3,5-Bis(trifluoromethyl)benzyl)-1-((6-(4-cyanophenoxy)pyridin-3-yl)methyl)-4-(cyclopropylmethyl)piperidine-4-carboxamide], the IC50 lay within 200 to 1000 nM.

As to `COc1ccc(CN2CCC(CC3CC3)(C(=O)NCc3cc(C(F)(F)F)cc(C(F)(F)F)c3)C2)cc1F` (stereo not drawn) [Example 80, N-(3,5-Bis(trifluoromethyl)benzyl)-3-(cyclopropylmethyl)-1-(3-fluoro-4-methoxybenzyl)pyrrolidine-3-carboxamide], the IC50 was 200 to 1000 nM.

Consider `O=C(O)c1cc(CN2CCC(CC3CC3)(C(=O)NCc3cc(C(F)(F)F)cc(C(F)(F)F)c3)C2)ccc1F` (stereo not drawn) [Example 79, 5-((3-(3,5-Bis(trifluoromethyl)benzylcarbamoyl)-3-(cyclopropylmethyl)pyrrolidin-1-yl)methyl)-2-fluorobenzoic acid], for which the IC50 was 200 to 1000 nM.

As for `CC(C)CC1(C(=O)NCc2cc(C(F)(F)F)cc(C(F)(F)F)c2)CCN(CCN2CCCCC2)CC1` [Example 18, N-(3,5-Bis(trifluoromethyl)benzyl)-4-isobutyl-1-(2-(piperidin-1-yl)ethyl)piperidine-4-carboxamide], the IC50 is above 1000 nM.

In the case of `CC(C)CC1(C(=O)NCc2cc(C(F)(F)F)cc(C(F)(F)F)c2)CCN(c2ccccn2)CC1` [Example 19, N-(3,5-Bis(trifluoromethyl)benzyl)-4-isobutyl-1-(pyridin-2-yl)piperidine-4-carboxamide], the IC50 is above 1000 nM.

Consider `CC(C)CC1(C(=O)N2CCN(c3cccc(C(F)(F)F)c3)CC2)CCN(Cc2ccc3c(c2)OCO3)CC1` [Example 40, (1-(Benzo[d][1,3]dioxol-5-ylmethyl)-4-isobutylpiperidin-4-yl)(4-(3-(trifluoromethyl)phenyl)piperazin-1-yl)methanone], for which the IC50 is above 1000 nM.

For `O=C(NCc1cc(C(F)(F)F)cc(C(F)(F)F)c1)C1(CC2CC2)CCN(Cc2ccc3c(c2)OC(F)(F)O3)CC1` [Example 50, N-(3,5-Bis(trifluoromethyl)benzyl)-4-(cyclopropylmethyl)-1-((2,2-difluorobenzo[d][1,3]dioxol-5-yl)methyl)piperidine-4-carboxamide], the IC50 was below 200 nM.

In the case of `CC(C)(CN1CCC(CC2CC2)(C(=O)NCc2cc(C(F)(F)F)cc(C(F)(F)F)c2)CC1)N1CCOCC1` [Example 69, N-(3,5-Bis(trifluoromethyl)benzyl)-4-(cyclopropylmethyl)-1-(2-methyl-2-morpholinopropyl)piperidine-4-carboxamide], the IC50 lay in the range of 200 to 1000 nM.

Take `CC(C)CC1(C(=O)NCc2cc(C(F)(F)F)cc(C(F)(F)F)c2)CCN(Cc2ccc3c(c2)OCO3)CC1` [Example 21, 1-(Benzo[d][1,3]dioxol-5-ylmethyl)-N-(3,5-bis(trifluoromethyl)benzyl)-4-isobutylpiperidine-4-carboxamide]: the IC50 was 200 to 1000 nM.
